# Measured values published in the METLIN SMRT retention time set (Domingo-Almenara et al. 2019).
# Experiment: gradient 5% acetonitrile 3 min, to 50% in 2 min, to 85% in 15 min, held 3 min, 100 µL/min
# Conditions: column: Zorbax Extend-C18 2.1 x 50 mm; eluents: water / acetonitrile, 0.1% formic acid
# In short: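 Pure standards were run in mixtures of ~100 molecules by HPLC coupled to a quadrupole time-of-flight mass spectrometer. The column was a Zorbax Extend-C18 (2.1 × 50 mm, 1.8 μm) at 100 μL/min, with water and acetonitrile each containing 0.1% formic acid, in positive and negative ionization mode. Dead and dwell volumes were 40 μL and 900 μL. Retention time was taken from computationally picked adduct peaks, each manually inspected, with data collected over 3 months.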
row,Compound,RP-LC retention time [s]
1,CC(C)c1cccc(Nc2nc3ccncc3n(C(C)C)c2=O)c1,707
2,Cc1ccc2[nH]cc(CCNC(=O)COc3ccc(Cl)cc3)c2c1,955
3,COc1ccc(OC)c(CNC(=O)Cc2nnc(-c3ccccn3)o2)c1,687
4,CC1(C)CC2CC(C)(CN2c2nc(-c3ccccc3)nc3ccccc23)C1 (stereo not given),948
5,CCS(=O)(=O)N1CCCN(c2ccc(=O)n(-c3ccc(C)cc3)n2)CC1,751
6,Cc1ccc2c(c1)N(CCCC(=O)Nc1ccc(C)c(C)c1)C(=O)CO2,922
7,O=C(c1ccco1)N1CCc2c([nH]c3ccccc23)C1c1ccc(F)cc1 (stereo not given),1080
8,Cc1ccc(C(=O)N2C[C@@H](F)C[C@H]2C(=O)N2CCc3ccccc3C2)s1,800
9,CCCCCOC(=O)Nc1nc(=O)n([C@@H]2O[C@H](C)[C@H](O)C2O)cc1F (stereo not given in full),682
10,CCOc1ccc(NC(=O)N2CCC(n3c(-c4ccoc4)nc4cccnc43)C2)cc1 (stereo not given),735
11,COc1ccc(-c2noc(-c3nnn4c3COC(c3ccc(C)cc3C)C4)n2)c(OC)c1 (stereo not given),1170
12,O=C(NCc1cccnc1Oc1ccccc1)c1cnn2cccnc12,695
13,COc1ccc(NC(=O)N2CCOc3ccc(C)cc32)cc1OC,827
14,Cc1ccc(NC(=O)C2CCCN(S(=O)(=O)c3c[nH]c(C(=O)N4CCCC4)c3)C2)cc1C (stereo not given),866
15,COc1ccc(NC(=O)C2CCN(S(C)(=O)=O)c3cc(C)ccc3O2)cc1 (stereo not given),872
16,CCn1ccc(C(=O)N2CC(Oc3ccc(-c4nc(-c5ccccc5)no4)cc3)C2)n1,1130
17,Cc1cc(C)nc(Nc2nc(C(=O)NCCn3nc(-c4ccco4)ccc3=O)cs2)n1,693
18,O=C1CN(C(=O)CN2CCCCC2)C(c2ccccc2)c2cc(Br)ccc2N1 (stereo not given),656
19,CC(C)CCNS(=O)(=O)c1cccc(-c2nc(-c3ccccc3)no2)c1,1230
20,CCOC(=O)CCNC(=O)N1CCc2cc(-c3ccc(C(=O)N4CCOCC4)cc3)ccc21,724
21,CCc1ccc(NC(=O)C2CCN(S(=O)(=O)c3cc(-c4noc(CC)n4)cs3)CC2)cc1,660
22,COc1cccc(OC)c1OCC(O)CN1CCN(c2ccc(F)cc2)CC1 (stereo not given),690
23,CCc1nnc(-c2ccc3ccn(CC(=O)Nc4cc(F)ccc4F)c3c2)o1,879

row,Compound,RP-LC retention time [s]
1,CCc1nc(N)n(CC(=O)Nc2ccc(F)cc2)c(=O)c1C,634
2,O=C(CSc1nnc2c(=O)n(-c3ccc(Br)cc3)ccn12)c1ccccc1,866
3,COc1ccc2nc(N3CCC(C(=O)N4CCN(c5ccccn5)CC4)CC3)sc2c1,578
4,O=c1oc2cc(O)c(Cl)cc2c2ccccc12,847
5,CCOC(=O)C1=C(C)NC(C)=C(C(=O)OCC)C1c1ccncc1,564
6,CNC(=O)c1cc(=O)[nH]c2ccc(F)cc12,584
7,CN(C)CCNC(=O)C1CCN(c2nc3ccc(-c4cccc(F)c4)nc3s2)CC1,691
8,O=C(NCc1cccs1)C1CN(S(=O)(=O)c2cccnc2)CC12CCCCC2 (stereo not given),856
9,O=c1c2sccc2n(Cc2nc(-c3ccc(F)cc3)no2)c(=O)n1-c1ccc(F)cc1,987
10,Cc1ccc(-n2c(N3CCCC(C(=O)NCc4cccs4)C3)nc3ccsc3c2=O)cc1 (stereo not given),880
11,COc1ccc(-c2ncn3c2C(=O)N(CC(=O)O)CC3)cc1,567
12,Cc1sc(NC(=O)C2CC2)nc1-c1ccc2c(c1)N(C)C(=O)CO2,811
13,COc1ccc(C(=O)N2CCC3(C2)C(=O)Nc2ccc(OC)cc23)c(OC)c1 (stereo not given),692
14,Cc1cccc(CNS(=O)(=O)c2c(C)sc(C)c2-c2n[nH]c(C)c2C)c1,1070
15,NC(=O)c1cc[nH]c1C1CCCN(C(=O)c2cscn2)C1 (stereo not given),579
16,O=C(c1ccc(Cl)cc1)N1CCCCC(Sc2ncnc3sccc23)C1=O (stereo not given),1050
17,Cc1nc2cc3c(cc2n1CC(=O)NCc1ccccc1Cl)OCCO3,645
18,Cc1c(C(=O)N2CCCC(C)C2)sc2ncn(CC(=O)N3CC(C)CC(C)C3)c(=O)c12 (stereo not given),966
19,CCN(Cc1ccc(Cl)cc1)Cc1cc(=O)n2cc(C)ccc2n1,583
20,Cc1nc(-c2nnn(Cc3ccccc3)c2C)no1,836
21,COc1cccc2cc(C(=O)NC3CNC(=O)C3)oc12 (stereo not given),586
22,O=C(c1ccc(F)c(F)c1)N1CCN(C(=O)c2nnn3c2COC(c2ccc(Cl)cc2)C3)CC1 (stereo not given),937
23,O=C(CCc1c[nH]c2ccccc12)N1CCOc2ccc(N3CCOCC3)cc2C1,770

row,Compound,RP-LC retention time [s]
1,CC(C)(CO)c1cc2cc(NC(=O)C3(c4ccc5c(c4)OC(F)(F)O5)CC3)c(F)cc2n1C[C@@H](O)CO,1000
2,CCCN1CCN(C(=O)C2=NN(c3ccc(C)cc3)c3ncccc3S2(=O)=O)CC1,643
3,N#CC(C#N)=Cc1ccc(O)c(O)c1,841
4,COC(CNC(=O)c1cc(C)nn1-c1ccccc1)OC,659
5,O=C(NCc1ccc2c(c1)CCCN2C(=O)C1CC1)c1ccc(Br)o1,840
6,COc1cccc2sc(N3CCCCC3)nc12,821
7,Cc1ccc(CC(=O)N2CCC3(CC2)NC(=O)c2ccc(F)cc2N3C)cc1,787
8,Cc1ccc2[nH]c(=O)c(CCC(=O)N3CCN(c4ncccn4)CC3)cc2c1,686
9,Cc1c(Cl)cccc1NC(=O)CCc1nc(CSc2nnc(-c3ccccc3)o2)no1,949
10,CC1CCN(c2cc(-n3cnc(C(=O)Nc4ccc(N(C)C)cc4)c3)ncn2)CC1,751
11,O=C(Nc1nnc(-c2ccno2)o1)C1CCCN(S(=O)(=O)c2ccc(Cl)s2)C1 (stereo not given),757
12,O=S(=O)(c1ccccc1F)N1CCC(c2noc(-c3cccc(F)c3)n2)CC1,1110
13,O=C(CC1=C2CCCCC2NC1=O)Nc1cccc(F)c1 (stereo not given),719
14,CC(Oc1ccccc1)C(=O)N(C)CCc1noc(-c2ccccc2)n1 (stereo not given),903
15,Cc1ccn2c(NC(=O)c3cccc([N+](=O)[O-])c3)c(-c3ccc(F)cc3)nc2c1,863
16,COCCCNC(=O)CSc1nccc2c1ccn2Cc1ccccc1,683
17,COc1ccc(OC)c(CNC(=O)c2cn3ccccc3n2)c1,665
18,CN(C)C(=O)Cn1c(C(F)(F)F)nc2cc3c(cc21)OCCO3,694
19,COc1ccc(S(=O)(=O)N2CCN(c3cc(C)nc(N4CCCCC4)n3)CC2)cc1Cl,768
20,COc1cccc(-n2c(N3CCC(C(=O)NCC4CC4)CC3)nc3ccsc3c2=O)c1,745
21,COc1ccc2c(c1)c(CN1CCC(C(=O)NCc3ccccc3C)CC1)cn2C,697
22,CCn1nccc1-c1cccc(-c2noc(-c3ccc4cc[nH]c4c3)n2)c1,1140
23,O=C(NCCC1=CCCCC1)C1CCN(c2cnc(N3CCCCC3)nc2)CC1,872

row,Compound,RP-LC retention time [s]
1,CCn1c(=O)c(N2CCN(S(=O)(=O)c3ccc4c(c3)CCC4)CC2)nc2ccncc21,748
2,CCC(C)NC(=O)C1CCN(c2nccc(-n3nc(C)cc3C)n2)CC1 (stereo not given),745
3,Cc1c(C(=O)c2ccccc2)c2ccccc2n1C,1030
4,CCn1c(C(=O)NCCCN2CCCCC2C)c(N2CCCC2=O)c2cc(F)ccc21 (stereo not given),654
5,Cc1ccc2c(c1)N(Cc1ccccc1)N=C(C(=O)N1CCCCC1)S2(=O)=O,1010
6,CCOc1ccc(CCNC(=O)C2CCCN(c3nccc(C)n3)C2)cc1OCC (stereo not given),767
7,CC(C)CNC(=O)c1ccc(-c2cccs2)nc1,825
8,Cc1n[nH]c(C)c1CCC(=O)N1CCCn2ccnc2C1C1CCCC1 (stereo not given),559
9,CCOC(=O)C1CCCN(c2ncc(S(=O)(=O)c3ccc(C)cc3)c(N)n2)C1 (stereo not given),983
10,Cc1ccc(NC(=O)Cn2c(=O)c3cc(-c4cccs4)nn3c3ncccc32)cc1F,924
11,COc1ccccc1CC(=O)Nc1ccc2c(c1)Sc1ncccc1C(=O)N2C(C)C,855
12,Cc1csc(NC(=O)c2ccc(Br)cc2)n1,902
13,Cc1nnc(SCC2=C(C(=O)O)N3C(=O)C(NC(=O)Cn4cnnn4)C3SC2)s1 (stereo not given),641
14,COC[C@@H]1CN(S(=O)(=O)c2ccc(C)cc2)C[C@H]1c1ccncc1,651
15,CCOC(=O)c1[nH]c(C)c(CCC(=O)Nc2ccc3c(c2)OCO3)c1C,819
16,CCN1C(=O)NC(c2cccc(F)c2)C2=C1CN(CCC(=O)N1CCCC1)C2=O (stereo not given),606
17,Cc1ccc(CNC(=O)CCC2CCN(c3cc(NC4CC4)ncn3)CC2)o1,660
18,Cc1ccc2c(c1)C(C)(C)C(=O)N2CC(=O)NCc1ccc(F)cc1,915
19,Cc1cc(C)cc(Nc2nc(C)cc(=O)n2CC(=O)NC(C)CCc2ccccc2)c1 (stereo not given),1030
20,CNc1oc(-c2ccco2)nc1S(=O)(=O)c1ccc(F)cc1,809
21,O=C(NC1CCCCC1N1C(=O)CSC1=O)c1ccc(=O)[nH]c1 (stereo not given),583
